According to patent publication US7557121B2, “Tetrahydronaphthyridine derivatives” (Pfizer Inc, priority 2004, dated 2009):

Columns and labels:
[1] = biological target: T1, human histamine H3 receptor (Homo sapiens, UniProt Q9Y5N1); assay: H3 cell based functional assay (cAMP through β-lactamase reporter gene activity); conditions: functional Ki from antagonist IC50 by Cheng-Prussoff; HEK-293 cells, 10 μM forskolin, 1 nM imetit
T1 construct: expressed in transfected cells; host or cells: HEK-293 cells expressing a CRE β-lactamase reporter gene
Experimental: H3 Cell Based Functional Assay Compounds were evaluated using a cell based functional assay measuring cAMP through β-lactamase reporter gene activity. A stable cell line was generated from HEK-293 cells expressing a CRE β-lactamase reporter gene and transfected with human histamine H3 receptor cDNA. Cells were seeded at a density of 500,000 cells/ml, and grown overnight in MEM (Invitrogen) supplemented with 1% dialysed FBS (Sigma), 2 mM glutamine (Sigma), 1 mM sodium pyruvate (Sigma), 0.1 mM non essential amino acids (Invitrogen) and 25 mM HEPES (Sigma) in poly D lysine coated 384 well plates (BD Biosciences).

hERG product = biological target: T2, hERG product (Homo sapiens, UniProt Q12809); assay: Radioligand binding assay for [3H]-dofetilide binding to the hERG product expressed in HEK-293S cells; conditions: displacement of 3H-UK068798 (~5 nM) from membranes of hERG expressing HEK-293S cells; Cheng-Prusoff
T2 construct: host or cells: HEK-293S cells (membranes)
Experimental: (§1) A Radioligand Binding Assay for [^3H]-dofetilide Binding to the hERG Product Expressed in HEK-293S Cells
(§2) hERG expressing HEK-293S cells were obtained from University of Wisconsin and membranes prepared according to standard protocols. Membranes were diluted in assay buffer, consisting of Tris-HCl 50 mM; KCl 10 mM; MgCl2 1 mM pH 7.4 with NaOH, and were pre-coupled with 120 mg/ml YSi polylysine Scintillation Proximity Beads in a ratio of 16 ug protein to 1 mg bead for 2 hours at 4° C. The coupled beads were separated from uncoupled protein by centrifugation and re-suspended in cold assay buffer to give a working solution of 6.25 mgs/ml. 20 μl of test compound was added to a 96-well microtiteplate at a final assay top concentration of 10 μM in serial ½ log dilutions (1 in 3.162) to generate at 10 point IC50 curve. 20 μl of ^3H-UK068798 (Dofetilide, Amersham; specific activity 78-83 Ci/mmole) was placed in each well of a 96 well plate to a final assay concentration of ˜5 nM. To this, 160 μl of bead/membrane mixture was added. The assay plates were shaken for 1 hour at room temperature and incubated for a further 30 minutes at room temperature for beads to settle. The plates were then read on a Packard TopCount NXT. The percentage displacement of ^3H-UK068798 was calculated using 0% as defined by 1% DMSO vehicle in well and 100% as defined by 10 μM UK-068798. Dose response curves were fitted using a four parameter logistical fit and the Ki value was derived using the Cheng-Prusoff equation (Cheng, Y. C. & Prusoff, W. H. (1973). Biochem. Pharmacol., 22, 3099-3108. )

hERG = biological target: T3, hERG (Homo sapiens, UniProt Q12809); assay: as above; conditions: human, membranes of HEK-293S cells expressing hERG, pH 7.4, probe [3H]-dofetilide (3H-UK068798); displacement of 3H-UK068798 (~5 nM) from membranes of hERG expressing HEK-293S cells; Cheng-Prusoff
T3 construct: host or cells: HEK-293S cells (membranes)
Experimental: as §1, §2

T2 sequence (Q12809 whole entry): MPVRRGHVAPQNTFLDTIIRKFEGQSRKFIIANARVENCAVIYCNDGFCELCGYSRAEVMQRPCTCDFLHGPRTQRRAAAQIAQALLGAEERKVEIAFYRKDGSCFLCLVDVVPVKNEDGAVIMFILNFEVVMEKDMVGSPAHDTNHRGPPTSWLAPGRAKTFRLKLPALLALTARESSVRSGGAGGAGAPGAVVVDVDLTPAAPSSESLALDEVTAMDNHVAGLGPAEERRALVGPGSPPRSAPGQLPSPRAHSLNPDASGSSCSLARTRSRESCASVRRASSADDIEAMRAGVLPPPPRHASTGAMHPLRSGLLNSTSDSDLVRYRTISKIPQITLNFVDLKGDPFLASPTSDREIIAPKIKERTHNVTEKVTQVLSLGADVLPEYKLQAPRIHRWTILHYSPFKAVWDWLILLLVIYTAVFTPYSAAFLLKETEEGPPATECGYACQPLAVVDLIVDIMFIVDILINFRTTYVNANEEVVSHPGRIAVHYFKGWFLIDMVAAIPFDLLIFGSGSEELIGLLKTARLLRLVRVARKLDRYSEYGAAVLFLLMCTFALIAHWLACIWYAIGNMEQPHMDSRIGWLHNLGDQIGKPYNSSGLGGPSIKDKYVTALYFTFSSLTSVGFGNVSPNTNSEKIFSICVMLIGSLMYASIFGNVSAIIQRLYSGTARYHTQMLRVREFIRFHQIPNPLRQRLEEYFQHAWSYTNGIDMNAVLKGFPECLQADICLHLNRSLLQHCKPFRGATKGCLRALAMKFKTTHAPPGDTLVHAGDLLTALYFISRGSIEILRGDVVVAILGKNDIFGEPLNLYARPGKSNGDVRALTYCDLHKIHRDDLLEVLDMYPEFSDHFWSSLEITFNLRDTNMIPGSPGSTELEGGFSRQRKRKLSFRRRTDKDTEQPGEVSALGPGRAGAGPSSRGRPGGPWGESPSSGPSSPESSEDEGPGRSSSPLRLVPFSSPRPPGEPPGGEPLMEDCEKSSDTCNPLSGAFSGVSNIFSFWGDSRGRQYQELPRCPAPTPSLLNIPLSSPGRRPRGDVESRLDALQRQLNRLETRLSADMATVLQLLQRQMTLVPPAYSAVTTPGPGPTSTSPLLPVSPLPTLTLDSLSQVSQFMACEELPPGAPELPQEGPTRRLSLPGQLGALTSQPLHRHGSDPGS
T3 sequence (Q12809 whole entry): as above
T1 sequence (Q9Y5N1 whole entry): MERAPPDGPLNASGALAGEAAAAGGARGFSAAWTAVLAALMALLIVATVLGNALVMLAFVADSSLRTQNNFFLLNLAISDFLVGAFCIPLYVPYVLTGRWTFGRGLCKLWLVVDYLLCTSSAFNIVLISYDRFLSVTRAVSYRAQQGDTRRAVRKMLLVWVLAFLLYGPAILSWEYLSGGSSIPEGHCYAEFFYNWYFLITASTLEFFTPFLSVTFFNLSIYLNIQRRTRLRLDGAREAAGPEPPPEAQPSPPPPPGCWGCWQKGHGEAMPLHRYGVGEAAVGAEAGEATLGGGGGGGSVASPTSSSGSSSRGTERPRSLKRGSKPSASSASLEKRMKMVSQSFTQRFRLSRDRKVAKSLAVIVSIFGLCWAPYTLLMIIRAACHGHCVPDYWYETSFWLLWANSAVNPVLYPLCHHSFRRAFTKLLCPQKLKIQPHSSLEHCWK

Row | SMILES | Ki [1] | Ki (hERG product) | Ki at 1.5 h (hERG)
1 | C[C@@H]1CCCN1CCCOc1ccc2c(n1)CCN(c1cccnn1)C2 [Example 22, 2-{3-[(2R)-2-methylpyrrolidin-1-yl]propoxy}-6-pyridazin-3-yl-5,6,7,8-tetrahydro-1,6-naphthyridine] | 0.00916 µM | 51.8 µM | 
2 | C[C@@H]1CCCN1CCCOc1ccc2c(n1)CCN(c1cnccn1)C2 [Example 23, 2-{3-[(2R)-2-methylpyrrolidin-1-yl]propoxy}-6-pyrazin-2-yl-5,6,7,8-tetrahydro-1,6-naphthyridine] | 0.0103 µM | 11.5 µM | 
3 | c1cnnc(N2CCc3nc(OCCCN4CCCCC4)ccc3C2)c1 [Example 29, 2-(3-piperidin-1-ylpropoxy)-6-pyridazin-3-yl-5,6,7,8-tetrahydro-1,6-naphthyridine] | 0.0198 µM | 64.4 µM | 
4 | CNC(=O)c1ccc(N2CCc3nc(OCCCN4CCCC4)ccc3C2)nc1 [Example 44, N-methyl-6-[2-(3-pyrrolidin-1-ylpropoxy)-7,8-dihydro-1,6-naphthyridin-6(5H)-yl]nicotinamide] | 0.0181 µM | 85.8 µM | 
5 | NC(=O)c1ccc(N2CCc3nc(OCCCN4CCCCC4)ccc3C2)nc1 [Example 48, 6-[2-(3-piperidin-1-ylpropoxy)-7,8-dihydro-1,6-naphthyridin-6(5H)-yl]nicotinamide] | 0.0145 µM |  | 100 µM
6 | CNC(=O)c1ccc(N2CCc3nc(OCCCN4CCCC4)ccc3C2)cn1 [Example 65, N-Methyl-5-[2-(3-pyrrolidin-1-ylpropoxy)-7,8-dihydro-1,6-naphthyridin-6(5H)-yl]pyridine-2-carboxamide] | 0.0163 µM | 46.1 µM | 
7 | CN(C)C(=O)c1ccc(N2CCc3nc(OCCCN4CCCC4)ccc3C2)cn1 [Example 67, N,N-Dimethyl-5-[2-(3-pyrrolidin-1-ylpropoxy)-7,8-dihydro-1,6-naphthyridin-6(5H)-yl]pyridine-2-carboxamide] | 0.0197 µM |  | 100 µM
8 | CC(C)N1CCC(Oc2ccc3c(n2)CCN(c2cnccn2)C3)CC1 [Example 71, 2-[(1-Isopropylpiperidin-4-yl)oxy]-6-pyrazin-2-yl-5,6,7,8-tetrahydro-1,6-naphthyridine] | 0.0137 µM | 22.9 µM | 

The next compounds have a lower Ki [1] than those just listed; values first:

Row | Ki [1] | SMILES | Ki (hERG product) | Ki at 1.5 h (hERG)
9 | 0.00821 µM | Cc1ccc(N2CCc3nc(OCCCN4CCC[C@H]4C)ccc3C2)cn1 [Example 24, 6-(6-methylpyridin-3-yl)-2-{3-[(2R)-2-methylpyrrolidin-1-yl]propoxy}-5,6,7,8-tetrahydro-1,6-naphthyridine] | 35.6 µM | 
10 | 0.00556 µM | C[C@H]1CCCN1CCCOc1ccc2c(n1)CCN(c1cccnn1)C2 [Example 25, 2-{3-[(2S)-2-methylpyrrolidin-1-yl]propoxy}-6-pyridazin-3-yl-5,6,7,8-tetrahydro-1,6-naphthyridine] | 55.9 µM | 
11 | 0.00524 µM | C[C@H]1CCCN1CCCOc1ccc2c(n1)CCN(c1cnccn1)C2 [Example 26, 2-{3-[(2S)-2-methylpyrrolidin-1-yl]propoxy}-6-pyrazin-2-yl-5,6,7,8-tetrahydro-1,6-naphthyridine] | 9.88 µM | 
12 | 0.00467 µM | CNC(=O)c1ccc(N2CCc3nc(OCCCN4CCC[C@H]4C)ccc3C2)cn1 [Example 64, N-Methyl-5-[2-{3-[(2R)-2-methylpyrrolidin-1-yl]propoxy}-7,8-dihydro-1,6-naphthyridin-6(5H)-yl]pyridine-2-carboxamide] | 55.5 µM | 
13 | 0.00828 µM | CNC(=O)c1ccc(N2CCc3nc(OCCCN4CCC[C@H]4C)ccc3C2)nc1 [Example 68, N-Methyl-6-[2-{3-[(2R)-2-methylpyrrolidin-1-yl]propoxy}-7,8-dihydro-1,6-naphthyridin-6(5H)-yl]nicotinamide] |  | 100 µM
14 | 0.00632 µM | CNC(=O)c1ccc(N2CCc3nc(OC4CCN(C(C)C)CC4)ccc3C2)nc1 [Example 70, 6-[2-[(1-Isopropylpiperidin4-yl)oxy]-7,8-dihydro-1,6-naphthyridin-6(5H)-yl]-N-methylnicotinamide] | 94.4 µM | 
15 | 0.00486 µM | Cc1ccc(N2CCc3nc(OC4CCN(C(C)C)CC4)ccc3C2)cn1 [Example 72, 2-[(1-isoproplpiperidin-4-yl)oxy]-6-(6-methylpyridin-3-yl)-5,6,7,8-tetrahydro-1,6-naphthyridine] | 13.7 µM | 
